Test results: PubChem BioAssay (NCI)
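Assay format: 96-well plates, 48-hour exposure. At the TGI there is no net growth.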

Columns and labels:
Assay in all cases: DTP human tumour cell line panel, 48 h
A549 NSCLC = tested on: A549 NSCLC
SK-MEL-5 melanoma = tested on: SK-MEL-5 melanoma
SF-295 CNS = tested on: SF-295 CNS
SF-539 CNS = tested on: SF-539 CNS
A498 renal = tested on: A498 renal
SK-OV-3 ovarian = tested on: SK-OV-3 ovarian
HOP-92 NSCLC = tested on: HOP-92 NSCLC
NCI-H23 lung = tested on: NCI-H23 lung
CAKI-1 renal = tested on: CAKI-1 renal
HOP-62 NSCLC = tested on: HOP-62 NSCLC
HL-60(TB) leukemia = tested on: HL-60(TB) leukemia
SN12C renal = tested on: SN12C renal
MALME-3M melanoma = tested on: MALME-3M melanoma
RPMI-8226 leukemia = tested on: RPMI-8226 leukemia
CCRF-CEM leukemia = tested on: CCRF-CEM leukemia
OVCAR-4 ovarian = tested on: OVCAR-4 ovarian
SF-268 CNS = tested on: SF-268 CNS
HCC-2998 colon = tested on: HCC-2998 colon
IGROV1 ovarian = tested on: IGROV1 ovarian
RXF 393 renal = tested on: RXF 393 renal
OVCAR-3 ovarian = tested on: OVCAR-3 ovarian
TK-10 renal = tested on: TK-10 renal
NCI-H522 lung = tested on: NCI-H522 lung
786-0 renal = tested on: 786-0 renal
DMS 273 small cell lung = tested on: DMS 273 small cell lung
UACC-62 melanoma = tested on: UACC-62 melanoma
OVCAR-8 ovarian = tested on: OVCAR-8 ovarian
MOLT-4 leukemia = tested on: MOLT-4 leukemia
K-562 leukemia = tested on: K-562 leukemia
SR leukemia = tested on: SR leukemia
SNB-78 CNS = tested on: SNB-78 CNS
HT29 colon = tested on: HT29 colon
ACHN renal = tested on: ACHN renal
SNB-75 CNS = tested on: SNB-75 CNS
M19-MEL melanoma = tested on: M19-MEL melanoma
EKVX NSCLC = tested on: EKVX NSCLC
LOX IMVI melanoma = tested on: LOX IMVI melanoma
HCT-15 colon = tested on: HCT-15 colon
SW-620 colon = tested on: SW-620 colon
UACC-257 melanoma = tested on: UACC-257 melanoma
KM12 colon = tested on: KM12 colon
KM20L2 colon = tested on: KM20L2 colon
UO-31 renal = tested on: UO-31 renal
SK-MEL-2 melanoma = tested on: SK-MEL-2 melanoma
HCT-116 colon = tested on: HCT-116 colon
NCI-H460 lung = tested on: NCI-H460 lung
SNB-19 CNS = tested on: SNB-19 CNS
SK-MEL-28 melanoma = tested on: SK-MEL-28 melanoma
COLO 205 colon = tested on: COLO 205 colon
LXFL 529 NSCLC = tested on: LXFL 529 NSCLC
U251 CNS = tested on: U251 CNS
M14 melanoma = tested on: M14 melanoma
DMS 114 small cell lung = tested on: DMS 114 small cell lung
NCI-H226 lung = tested on: NCI-H226 lung
OVCAR-5 ovarian = tested on: OVCAR-5 ovarian
DLD-1 colon = tested on: DLD-1 colon
XF 498 CNS = tested on: XF 498 CNS

## CCCCCCCCCCCC(=O)OCC1OC(n2cc(F)c(=O)[nH]c2=O)C(NC(=O)OCc2ccccc2)C(O)C1O (stereo unspecified)
A549 NSCLC
  TGI: 43.2 µM
SK-MEL-5 melanoma
  TGI: 34.6 µM
SF-295 CNS
  TGI: 63.9 µM
SF-539 CNS
  TGI: 49.4 µM
A498 renal
  TGI: 51.4 µM
SK-OV-3 ovarian
  TGI: > 100 µM
HOP-92 NSCLC
  TGI: 40.7 µM
NCI-H23 lung
  TGI: 93.6 µM
CAKI-1 renal
  TGI: > 100 µM
HOP-62 NSCLC
  TGI: > 100 µM
HL-60(TB) leukemia
  TGI: 49.7 µM
SN12C renal
  TGI: 34.7 µM
MALME-3M melanoma
  TGI: 47.9 µM
RPMI-8226 leukemia
  TGI: 53.5 µM
CCRF-CEM leukemia
  TGI: 41.7 µM
OVCAR-4 ovarian
  TGI: 63.9 µM
SF-268 CNS
  TGI: > 100 µM
HCC-2998 colon
  TGI: 32.9 µM
IGROV1 ovarian
  TGI: > 100 µM
RXF 393 renal
  TGI: 73.6 µM
OVCAR-3 ovarian
  TGI: 68.4 µM
TK-10 renal
  TGI: > 100 µM
NCI-H522 lung
  TGI: 30.8 µM
786-0 renal
  TGI: 50.9 µM
DMS 273 small cell lung
  TGI: 36.2 µM
UACC-62 melanoma
  TGI: 38.6 µM
OVCAR-8 ovarian
  TGI: 43.7 µM
MOLT-4 leukemia
  TGI: 53.4 µM
K-562 leukemia
  TGI: 52.3 µM
SR leukemia
  TGI: 41.2 µM
SNB-78 CNS
  TGI: 87.7 µM
HT29 colon
  TGI: 29.8 µM
ACHN renal
  TGI: > 100 µM
SNB-75 CNS
  TGI: 28.1 µM
M19-MEL melanoma
  TGI: 37.2 µM
EKVX NSCLC
  TGI: 79.9 µM
LOX IMVI melanoma
  TGI: 32.4 µM
HCT-15 colon
  TGI: 43.5 µM
SW-620 colon
  TGI: 41.5 µM
UACC-257 melanoma
  TGI: 50.8 µM
KM12 colon
  TGI: 42.9 µM
KM20L2 colon
  TGI: 42.3 µM
UO-31 renal
  TGI: 93 µM
SK-MEL-2 melanoma
  TGI: 42.5 µM
HCT-116 colon
  TGI: 30.3 µM
NCI-H460 lung
  TGI: 34.3 µM
SNB-19 CNS
  TGI: 75.5 µM
SK-MEL-28 melanoma
  TGI: 35.4 µM
COLO 205 colon
  TGI: 39.7 µM
LXFL 529 NSCLC
  TGI: 34.3 µM
U251 CNS
  TGI: 38.9 µM
M14 melanoma
  TGI: 36.2 µM

## CC(C)(C)N=C1CC(C)(C)c2ccccc2C(=Nc2ccccc2)S1
A549 NSCLC
  TGI: > 100 µM
SK-MEL-5 melanoma
  TGI: 59.2 µM
SF-295 CNS
  TGI: > 100 µM
SF-539 CNS
  TGI: > 100 µM
A498 renal
  TGI: > 100 µM
SK-OV-3 ovarian
  TGI: > 100 µM
NCI-H23 lung
  TGI: 98.6 µM
CAKI-1 renal
  TGI: > 100 µM
HOP-62 NSCLC
  TGI: > 100 µM
HL-60(TB) leukemia
  TGI: 36 µM
SN12C renal
  TGI: > 100 µM
MALME-3M melanoma
  TGI: 96.5 µM
DMS 114 small cell lung
  TGI: 83.4 µM
RPMI-8226 leukemia
  TGI: 41.5 µM
CCRF-CEM leukemia
  TGI: > 100 µM
SF-268 CNS
  TGI: > 100 µM
HCC-2998 colon
  TGI: > 100 µM
IGROV1 ovarian
  TGI: > 100 µM
RXF 393 renal
  TGI: > 100 µM
NCI-H226 lung
  TGI: > 100 µM
OVCAR-3 ovarian
  TGI: > 100 µM
OVCAR-5 ovarian
  TGI: > 100 µM
TK-10 renal
  TGI: > 100 µM
NCI-H522 lung
  TGI: 46.7 µM
DLD-1 colon
  TGI: > 100 µM
786-0 renal
  TGI: > 100 µM
DMS 273 small cell lung
  TGI: > 100 µM
UACC-62 melanoma
  TGI: > 100 µM
OVCAR-8 ovarian
  TGI: > 100 µM
MOLT-4 leukemia
  TGI: 69.2 µM
K-562 leukemia
  TGI: > 100 µM
SNB-78 CNS
  TGI: > 100 µM
HT29 colon
  TGI: > 100 µM
ACHN renal
  TGI: > 100 µM
SNB-75 CNS
  TGI: > 100 µM
M19-MEL melanoma
  TGI: > 100 µM
EKVX NSCLC
  TGI: > 100 µM
LOX IMVI melanoma
  TGI: 40.1 µM
HCT-15 colon
  TGI: > 100 µM
SW-620 colon
  TGI: > 100 µM
XF 498 CNS
  TGI: 45.5 µM
UACC-257 melanoma
  TGI: > 100 µM
KM12 colon
  TGI: > 100 µM
KM20L2 colon
  TGI: > 100 µM
UO-31 renal
  TGI: > 100 µM
SK-MEL-2 melanoma
  TGI: 99 µM
HCT-116 colon
  TGI: > 100 µM
NCI-H460 lung
  TGI: > 100 µM
SNB-19 CNS
  TGI: > 100 µM
SK-MEL-28 melanoma
  TGI: > 100 µM
COLO 205 colon
  TGI: 49.6 µM
LXFL 529 NSCLC
  TGI: > 100 µM
U251 CNS
  TGI: > 100 µM
M14 melanoma
  TGI: > 100 µM
